{"source": "patent US20240082273A1", "about": "“NEUROKININ INHIBITORS SUCH AS APREPITANT FOR TREATING NON SMALL CELL LUNG CARCINOMA OR BREAST CANCER WITHOUT MUTATIONS” (priority 2020, published 2024)", "key": {"[1]": {"tested_on": "lung cancer cell line with molecular profile EGFR+/ALK−/ROS1− (HCC4006)", "assay": "MTT proliferation, NSCLC cell line with EGFR+/ALK−/ROS1− profile", "format": "cell-based, human", "settings": "48 hours", "excerpt": "(§1) EGFR, ALK and ROS1 are key molecular factors that may be used to determine pathological classification, prognosis, therapeutics and behaviour in patients with lung cancer. EGFR, ALK and ROS1 are biomarkers routinely analysed in the clinical practice of the management of patients with NSCLC. NSCLC with molecular profile EGFR-/ALK-/ROS1- presents a better response to treatment with the NK1 inhibitor aprepitant, compared to lung cancer with different profiles (in particular, EGFR+/ALK-/ROS1- and EGFR-/ALK+/ROS1-, in which EGFR and ALK respectively contain mutations relative to their wild type gene). Commercial lines of lung cancer were used as shown in Table 2 together with their molecular profile. The molecular profile of the cancer cell lines was determined by sequencing and can be consulted in the Cancer Cell Line Encyclopaedia database of public access available at the url: https://portals.broadinstitute.org/ccle All cells were cultured in wells under vendor-recommended conditions and exposed to different concentrations of aprepitant for 48 hours. In each case a group of wells of cells were used to which no treatment was applied and which were considered as controls. At 48 hours the number of cells was measured. Eight cell lines of human were used for the study of NK1 inhibitors (Table 3). All of them were maintained in culture in their respective culture media (Gibco,Thermo Fisher Scientific) supplemented with 10% foetal bovine serum (FBS) (Gibco, Thermo Fisher Scientific), 2 mM L-Glutamine (Gln) (Sigma-Aldrich, Merk), and […] and […] Gibco, Thermo Fisher Scientific) in a humidified incubator at 37° C. and 5% CO2. Cell culture media used are Dulbecco's Modified Eagle Medium (DMEM), and RPMI Medium 1640 (RPMI-1640). To measure cell viability, the cytotoxicity of drugs in culture was evaluated using the 3-(4,5-Dimethyl-2-thiazolyl)-2,5-diphenyl-2H-tetrazolium bromide (MTT) reduction assay. This assay assesses cell viability through the indirect measurement of the activity of reductases that convert yellow soluble MTT into purple insoluble formazan salts. As MTT can only be reduced when these enzymes are active, the reaction is used as an indicator of the cell metabolic competence and, therefore, of viability. A variable number of cells (depending on the cell line) were seeded in 96 multi-well plates and grown during 24 hours. The following day, the culture medium was aspirated and fresh culture medium with the drug dissolved was added to the wells. After 24 hours or 48 hours cell viability was measurement by adding 10 μl of a 5 mg/ml MTT solution (M5655; Sigma-Aldrich) and 100 μl of HCl 0.01M-SDS 10% solution 4 hours later. After 24 hours, the absorbance was measured at 595 nm, using a multi-well plate reader (iMark, Bio-rad). Each condition was tested 5 times, obtaining 5 values of absorbance. All sample measurements were corrected using the blank (culture medium without cells) mean absorbance value, and normalized to positive control to determinate relative cell viability for each condition at 24 and 48 hours."}, "[2]": {"tested_on": "lung cancer cell lines with molecular profile EGFR−/ALK+/ROS1− (H322, H332)", "assay": "MTT proliferation, NSCLC cell lines with EGFR−/ALK+/ROS1− profile", "format": "cell-based, human", "settings": "48 hours", "excerpt": "as §1"}, "H460": {"tested_on": "H460", "assay": "MTT proliferation, H460", "format": "cell-based, human", "settings": "48 hours", "excerpt": "as §1"}, "[3]": {"tested_on": "human primary triple negative breast carcinoma (ER−/PR−/HER2−) tumour cells", "assay": "Primary triple negative breast carcinoma xenograft mouse model", "format": "in vivo, nu/nu Balb/c nude mice", "settings": "for Mean proliferation: 28 days", "experimental": "Immunocompromised female mice, 5-6 weeks of age were used, nu/nu Balb/c nude mice, provided by Harlan Iberica Barcelona (Spain). They were kept at 24° C. and in sterile conditions with food and water “ad libitum”. They were injected with 2×10^7 tumour cells, corresponding to human primary triple negative breast carcinoma (i.e. tumour cells having a ER−/PR−/HER2− molecular profile) in 200 μl of PBS subcutaneous route. The tumour size was measured and the mice were evaluated for their state of health and weight daily. The mice were randomised in groups when the tumours reached a volume of 75 mm^3. One of the groups was treated with 200 μl of placebo (control group) and the eight remaining groups with doses of 1 to 100 mg per kilogram of weight and day of the NK1 inhibitor aprepitant. Five animals were treated per group, during 28 days. All the mice were sacrificed at the end of the experiment."}}}
{"compound": "C[C@@H](O[C@H]1OCCN(Cc2nc(=O)[nH][nH]2)[C@H]1c1ccc(F)cc1)c1cc(C(F)(F)F)cc(C(F)(F)F)c1", "note": "[Aprepitant]", "values": [{"measurement": "Mean proliferation", "setting": "[1]; aprepitant 1 μM", "result": 101.53}, {"measurement": "Mean proliferation", "setting": "[1]; aprepitant 3 μM", "result": 99.73}, {"measurement": "Mean proliferation", "setting": "[1]; aprepitant 5 μM", "result": 96.4}, {"measurement": "Mean proliferation", "setting": "[1]; aprepitant 10 μM", "result": 89.14}, {"measurement": "Mean proliferation", "setting": "[1]; aprepitant 20 μM", "result": 69.95}, {"measurement": "Mean proliferation", "setting": "[1]; aprepitant 30 μM", "result": 54.9}, {"measurement": "Mean proliferation", "setting": "[1]; aprepitant 40 μM", "result": 38.12}, {"measurement": "Mean proliferation", "setting": "[1]; aprepitant 50 μM", "result": 24.82}, {"measurement": "Mean proliferation", "setting": "[1]; aprepitant 60 μM", "result": 14.95}, {"measurement": "Mean proliferation", "setting": "[2]; aprepitant 1 μM", "result": 102.88}, {"measurement": "Mean proliferation", "setting": "[2]; aprepitant 3 μM", "result": 92.41}, {"measurement": "Mean proliferation", "setting": "[2]; aprepitant 5 μM", "result": 105.07}, {"measurement": "Mean proliferation", "setting": "[2]; aprepitant 10 μM", "result": 108.06}, {"measurement": "Mean proliferation", "setting": "[2]; aprepitant 20 μM", "result": 99}, {"measurement": "Mean proliferation", "setting": "[2]; aprepitant 30 μM", "result": 88.22}, {"measurement": "Mean proliferation", "setting": "[2]; aprepitant 40 μM", "result": 68.94}, {"measurement": "Mean proliferation", "setting": "[2]; aprepitant 50 μM", "result": 37.3}, {"measurement": "Mean proliferation", "setting": "[2]; aprepitant 60 μM", "result": 11.67}, {"measurement": "Mean proliferation", "setting": "H460; aprepitant 1 μM", "result": 91.72}, {"measurement": "Mean proliferation", "setting": "H460; aprepitant 3 μM", "result": 100.26}, {"measurement": "Mean proliferation", "setting": "H460; aprepitant 5 μM", "result": 67.81}, {"measurement": "Mean proliferation", "setting": "H460; aprepitant 10 μM", "result": 56.01}, {"measurement": "Mean proliferation", "setting": "H460; aprepitant 20 μM", "result": 31.24}, {"measurement": "Mean proliferation", "setting": "H460; aprepitant 30 μM", "result": 18.27}, {"measurement": "Mean proliferation", "setting": "H460; aprepitant 40 μM", "result": 14.74}, {"measurement": "Mean proliferation", "setting": "H460; aprepitant 50 μM", "result": "−0.95"}, {"measurement": "Mean proliferation", "setting": "H460; aprepitant 60 μM", "result": "−1.95"}, {"measurement": "Mean proliferation", "setting": "[3]; aprepitant 1 mg/kg/day", "result": 104}, {"measurement": "Mean proliferation", "setting": "[3]; aprepitant 3 mg/kg/day", "result": 108}, {"measurement": "Mean proliferation", "setting": "[3]; aprepitant 5 mg/kg/day", "result": 112}, {"measurement": "Mean proliferation", "setting": "[3]; aprepitant 8 mg/kg/day", "result": 110}, {"measurement": "Mean proliferation", "setting": "[3]; aprepitant 10 mg/kg/day", "result": 99}, {"measurement": "Mean proliferation", "setting": "[3]; aprepitant 20 mg/kg/day", "result": 76}, {"measurement": "Mean proliferation", "setting": "[3]; aprepitant 30 mg/kg/day", "result": 65}, {"measurement": "Mean proliferation", "setting": "[3]; aprepitant 40 mg/kg/day", "result": 61}, {"measurement": "Mean proliferation", "setting": "[3]; aprepitant 50 mg/kg/day", "result": 56}, {"measurement": "Mean proliferation", "setting": "[3]; aprepitant 60 mg/kg/day", "result": 54}, {"measurement": "Mean proliferation", "setting": "[3]; aprepitant 70 mg/kg/day", "result": 50}, {"measurement": "Mean proliferation", "setting": "[3]; aprepitant 80 mg/kg/day", "result": 50}, {"measurement": "triple negative human primary breast carcinoma proliferation in a xenograft model", "setting": "[3]; dose-dependent fashion", "result": "reduces"}]}
